From ChEMBL document CHEMBL4831528, “Discovery of Novel Pterostilbene-Based Derivatives as Potent and Orally Active NLRP3 Inflammasome Inhibitors with Inflammatory Activity for Colitis” (J Med Chem, 2021)
Calls of active or inactive are those of the source.

Legend:
[1] = molecular target: NACHT, LRR and PYD domains-containing protein 3 (Mus musculus) (UniProt Q8R4B8); experiment: Inhibition of NLRP3 inflammasome activation in LPS-stimulated mouse bone marrow-derived macrophages assessed as reduction in ASC polymerization at 1 to 4 uM preincubated for 30 mins followed by nigericin addition and measured after 0.5 hrs by DAPI staining based confocal scanning microscopy; settings: Macrophage, dose 1-4 µM
Target sequence in this assay (Q8R4B8 whole entry, looked up, the tested form may be a part): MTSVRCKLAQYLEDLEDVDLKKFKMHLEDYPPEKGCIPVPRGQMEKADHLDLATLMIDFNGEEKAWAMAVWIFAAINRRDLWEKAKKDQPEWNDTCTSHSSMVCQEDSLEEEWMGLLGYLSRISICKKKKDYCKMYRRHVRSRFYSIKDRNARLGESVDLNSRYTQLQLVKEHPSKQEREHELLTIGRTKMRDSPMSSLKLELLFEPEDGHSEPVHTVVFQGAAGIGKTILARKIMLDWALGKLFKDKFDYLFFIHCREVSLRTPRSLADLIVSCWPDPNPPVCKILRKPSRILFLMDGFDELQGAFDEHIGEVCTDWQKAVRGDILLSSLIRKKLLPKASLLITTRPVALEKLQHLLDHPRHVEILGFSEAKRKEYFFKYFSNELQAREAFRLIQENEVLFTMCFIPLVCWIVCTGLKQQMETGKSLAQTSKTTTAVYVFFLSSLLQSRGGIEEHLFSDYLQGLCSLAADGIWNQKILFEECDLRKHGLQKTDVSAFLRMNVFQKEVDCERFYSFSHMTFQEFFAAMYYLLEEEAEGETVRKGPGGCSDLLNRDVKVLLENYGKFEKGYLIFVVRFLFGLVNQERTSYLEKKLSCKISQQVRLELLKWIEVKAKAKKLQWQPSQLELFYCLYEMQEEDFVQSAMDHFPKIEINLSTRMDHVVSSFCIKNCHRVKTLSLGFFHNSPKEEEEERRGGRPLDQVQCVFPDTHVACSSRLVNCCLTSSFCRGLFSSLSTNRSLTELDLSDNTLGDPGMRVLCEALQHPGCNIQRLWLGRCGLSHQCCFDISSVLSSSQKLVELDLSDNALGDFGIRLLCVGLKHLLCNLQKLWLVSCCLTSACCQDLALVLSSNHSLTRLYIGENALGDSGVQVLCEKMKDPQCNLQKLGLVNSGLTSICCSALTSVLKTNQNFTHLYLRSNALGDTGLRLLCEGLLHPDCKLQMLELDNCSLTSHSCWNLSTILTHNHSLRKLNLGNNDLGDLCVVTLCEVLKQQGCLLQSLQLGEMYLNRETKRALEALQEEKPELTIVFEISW

[2] = Cmax in mouse at 2 mg/kg, iv measured after 0.08 to 24 hrs by LC-MS/MS analysis; type: ADME, organism-based; parameters: route intravenous, time 0.08-24 hrs, dose 2 mg/kg; settings: in vivo
[3] = Toxicity in C57BL/6 mouse assessed as loose fur at 20 to 40 mg/kg, ig administered for 28 days; type: organism-based; settings: in vivo, po, 672 h, dose 20-40 mg/kg, time 28 day
[4] = Toxicity in C57BL/6 mouse assessed as induction of lethargy at 20 to 40 mg/kg, ig administered for 28 days; type: organism-based; settings: in vivo, po, 672 h, dose 20-40 mg/kg, time 28 day
[5] = Tmax in mouse at 20 mg/kg, po measured up to 24 hrs by LC-MS/MS analysis; type: ADME, organism-based; settings: in vivo
Mus musculus [6] = experiment: Downregulation of IL-1beta expression in colon of C57BL/6 mouse model of DSS-induced ulcerative colitis at 10 to 20 mg/kg, ig administered for 7 days by Western blot analysis; type: functional, organism-based; settings: dose 10-20 mg/kg, time 7.0 day
[7] = Clearance in mouse at 20 mg/kg, po measured up to 24 hrs by LC-MS/MS analysis; type: ADME, organism-based; settings: in vivo
[8] = molecular target: NACHT, LRR and PYD domains-containing protein 3 (Mus musculus) (UniProt Q8R4B8); experiment: Inhibition of NLRP3 inflammasome activation in LPS-stimulated mouse bone marrow-derived macrophages assessed as reduction in cleaved IL-1beta secretion in supernatant at 2 uM preincubated for 30 mins followed by ATP addition and measured after 0.5 hrs by Western blot analysis; type: tissue-based; settings: Macrophage, time 60.0 min
Target sequence in this assay (Q8R4B8 whole entry, the tested form may be a part): as the sequence (Q8R4B8 whole entry, looked up, the tested form may be a part) above

[9] = molecular target: NACHT, LRR and PYD domains-containing protein 3 (Mus musculus) (UniProt Q8R4B8); experiment: Inhibition of NLRP3 inflammasome activation in LPS-stimulated mouse bone marrow-derived macrophages assessed as reduction in cleaved IL-1beta secretion preincubated for 30 mins followed by nigericin addition and measured after 30 mins by Western blot analysis; type: tissue-based; settings: Macrophage, time 60.0 min
Target sequence in this assay (Q8R4B8 whole entry, the tested form may be a part): as the sequence (Q8R4B8 whole entry, looked up, the tested form may be a part) above

[10] = Intrinsic clearance in human liver microsomes preincubated for 5 mins followed by NADPH addition and measured after 5 to 60 mins by LC-MS/MS analysis; type: ADME, Microsome; settings: time 5-60 min, read-out: CLH
Mus musculus [11] = experiment: Protection against DSS-induced acute ulcerative colitis in C57BL/6 mouse assessed as reduction in bloody stool at 10 to 20 mg/kg, ig administered for 7 days; type: functional, organism-based; settings: dose 10-20 mg/kg, time 7.0 day
[12] = Toxicity in C57BL/6 mouse assessed as effect on lung at 20 to 40 mg/kg, ig administered for 28 days; type: organism-based; settings: in vivo, po, 672 h, dose 20-40 mg/kg, time 28 day
[13] = Half life in mouse liver microsomes preincubated for 5 mins followed by NADPH addition and measured after 5 to 60 mins by LC-MS/MS analysis; type: ADME, Microsome; settings: time 5-60 min
[14] = molecular target: T1, Interferon-inducible protein AIM2 (Mus musculus) (UniProt Q91VJ1); experiment: Inhibition of AIM2 inflammasome activation in LPS-stimulated mouse bone marrow-derived macrophages assessed as reduction in IL-1beta secretion at 2 uM preincubated for 30 mins followed by poly-(dA:dT) addition and measured after 4 hrs by ELISA; type: tissue-based; settings: Macrophage, time 4.5 hrs
T1 sequence (whole entry): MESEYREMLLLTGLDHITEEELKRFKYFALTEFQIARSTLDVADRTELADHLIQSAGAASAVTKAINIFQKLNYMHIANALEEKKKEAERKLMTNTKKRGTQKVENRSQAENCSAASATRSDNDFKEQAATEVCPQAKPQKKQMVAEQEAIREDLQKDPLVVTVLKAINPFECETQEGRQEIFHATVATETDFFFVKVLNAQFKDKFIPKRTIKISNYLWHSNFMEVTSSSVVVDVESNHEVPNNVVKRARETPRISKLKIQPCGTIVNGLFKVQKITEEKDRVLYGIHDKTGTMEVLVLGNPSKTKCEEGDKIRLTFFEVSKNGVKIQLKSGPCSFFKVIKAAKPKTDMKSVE

[15] = molecular target: NACHT, LRR and PYD domains-containing protein 3 (Mus musculus) (UniProt Q8R4B8); experiment: Inhibition of NLRP3 inflammasome activation in LPS-stimulated mouse bone marrow-derived macrophages assessed as attenuation of ASC monomer at 1 to 4 uM preincubated for 30 mins followed by nigericin addition and measured after 0.5 hrs by Western blot analysis; type: tissue-based; settings: Macrophage, dose 1-4 µM, time 60.0 min
Target sequence in this assay (Q8R4B8 whole entry, the tested form may be a part): as the sequence (Q8R4B8 whole entry, looked up, the tested form may be a part) above

Mus musculus [16] = experiment: Anti-inflammatory activity in C57BL/6 mouse DSS-induced acute ulcerative colitis assessed as reduction in disease index at 10 to 20 mg/kg, ig administered for 7 days; type: functional, organism-based; settings: dose 10-20 mg/kg, time 7.0 day
[17] = molecular target: NACHT, LRR and PYD domains-containing protein 3 (Mus musculus) (UniProt Q8R4B8); experiment: Inhibition of NLRP3 inflammasome activation in LPS-stimulated mouse bone marrow-derived macrophages assessed as attenuation of ASC dimer at 1 to 4 uM preincubated for 30 mins followed by nigericin addition and measured after 0.5 hrs by Western blot analysis; type: tissue-based; settings: Macrophage, dose 1-4 µM
Target sequence in this assay (Q8R4B8 whole entry, the tested form may be a part): as the sequence (Q8R4B8 whole entry, looked up, the tested form may be a part) above

BMDM = experiment: Effect on pro-caspase1 expression in LPS-stimulated mouse bone marrow-derived macrophages at 0.5 to 2 uM preincubated for 30 mins followed by nigericin addition and measured after 30 mins by Western blot analysis; type: functional, tissue-based; settings: dose 0.5-2 µM, time 60.0 min
[18] = Toxicity in C57BL/6 mouse assessed as effect on kidney at 20 to 40 mg/kg, ig administered for 28 days; type: organism-based; settings: in vivo, po, 672 h, dose 20-40 mg/kg, time 28 day
[19] = molecular target: NACHT, LRR and PYD domains-containing protein 3 (Mus musculus) (UniProt Q8R4B8); experiment: Inhibition of NLRP3 inflammasome activation in LPS-stimulated mouse bone marrow-derived macrophages assessed as reduction in ILbeta secretion at 2 uM preincubated for 30 mins followed by nigericin addition and measured after 0.5 hrs by ELISA; type: tissue-based; settings: Macrophage, time 60.0 min
Target sequence in this assay (Q8R4B8 whole entry, the tested form may be a part): as the sequence (Q8R4B8 whole entry, looked up, the tested form may be a part) above

[20] = molecular target: NACHT, LRR and PYD domains-containing protein 3 (Mus musculus) (UniProt Q8R4B8); experiment: Inhibition of NLRP3 inflammasome activation in LPS-stimulated mouse bone marrow-derived macrophages assessed as reduction in ILbeta secretion at 2 uM preincubated for 30 mins followed by ATP addition and measured after 0.5 hrs by ELISA; type: tissue-based; settings: Macrophage, time 60.0 min
Target sequence in this assay (Q8R4B8 whole entry, the tested form may be a part): as the sequence (Q8R4B8 whole entry, looked up, the tested form may be a part) above

[21] = molecular target: NACHT, LRR and PYD domains-containing protein 3 (Mus musculus) (UniProt Q8R4B8); experiment: Inhibition of NLRP3 inflammasome activation in LPS-stimulated mouse bone marrow-derived macrophages assessed as reduction in pro IL-1beta secretion in cell lysate at 2 uM preincubated for 30 mins followed by ATP addition and measured after 0.5 hrs by Western blot analysis; type: subcellular; settings: Macrophage, time 60.0 min
Mus musculus [22] = experiment: Downregulation of TNFalpha expression in C57BL/6 mouse model of DSS-induced ulcerative colitis at 10 to 20 mg/kg, ig administered for 7 days by ELISA; type: functional, organism-based; settings: dose 10-20 mg/kg, time 7.0 day
[23] = molecular target: NACHT, LRR and PYD domains-containing protein 3 (Mus musculus) (UniProt Q8R4B8); experiment: Inhibition of NLRP3 inflammasome activation in LPS-stimulated mouse bone marrow-derived macrophages assessed as reduction in pro IL-1beta in cell lysate at 2 uM preincubated for 30 mins followed by MSU addition and measured after 0.5 hrs by Western blot analysis; type: subcellular; settings: Macrophage, time 60.0 min
Mus musculus [24] = experiment: Downregulation of COX2 expression in colon of C57BL/6 mouse model of DSS-induced ulcerative colitis at 10 to 20 mg/kg, ig administered for 7 days by Western blot analysis; type: functional, organism-based; settings: dose 10-20 mg/kg, time 7.0 day
[25] = Toxicity in C57BL/6 mouse assessed as overactivity at 20 to 40 mg/kg, ig administered for 28 days; type: organism-based; settings: in vivo, po, 672 h, dose 20-40 mg/kg, time 28 day
[26] = molecular target: NACHT, LRR and PYD domains-containing protein 3 (Mus musculus) (UniProt Q8R4B8); experiment: Inhibition of NLRP3 inflammasome activation in LPS-stimulated mouse bone marrow-derived macrophages assessed as reduction in pro caspase1 p20 in cell lysate at 2 uM preincubated for 30 mins followed by ATP addition and measured after 0.5 hrs by Western blot analysis; type: subcellular; settings: Macrophage, time 60.0 min

COc1cc(/C=C/c2ccc(NC(=O)C3CC3)cc2)c(/C=C/[N+](=O)[O-])c(OC)c1
active: inhibition [1] | Activity (Mus musculus [6]) | inhibition [8] | inhibition [9] Dose-Dependent Effect | Activity (Mus musculus [11]) | inhibition [15] | Activity (Mus musculus [16]) | inhibition [17] | inhibition [19] | inhibition [20] | inhibition [21] | Activity (Mus musculus [22]) | inhibition [23] | Activity (Mus musculus [24]) | inhibition [26]
Non-Toxic: Activity [3] | Activity [4] | Activity [12] | Activity [18] | Activity [25]
20.3 µL/min/mg: microsomal CLint [10]
inactive: inhibition [14] | Activity (BMDM)
355 ng/mL: Cmax [2]
152 mL/min/kg: CL [7]
2.33 h: Tmax [5]
0.722 h: half-life [13]
